Data as given in US20060074109A1, “Use of inhibitors of 24-hydroxylase in the treatment of cancer” (Sapphire Therapeutics, Inc., priority 2004, published 2006).

Legend:
24OHase in OVCAR-3 cells = target: T1, 24OHase in OVCAR-3 cells (Homo sapiens, UniProt Q07973); experiment: Metabolic analysis of 25(OH)D3: 24,25(OH)2D3 production; type: cell-based; conditions: for amount of 24,25(OH)2D3 relative to 0 hr: first experiment
T1 construct: Also, 24OHase is expressed in OVCAR-3 cells; endogenous in cells; host or cells: OVCAR-3
T1 sequence (Q07973 36-514): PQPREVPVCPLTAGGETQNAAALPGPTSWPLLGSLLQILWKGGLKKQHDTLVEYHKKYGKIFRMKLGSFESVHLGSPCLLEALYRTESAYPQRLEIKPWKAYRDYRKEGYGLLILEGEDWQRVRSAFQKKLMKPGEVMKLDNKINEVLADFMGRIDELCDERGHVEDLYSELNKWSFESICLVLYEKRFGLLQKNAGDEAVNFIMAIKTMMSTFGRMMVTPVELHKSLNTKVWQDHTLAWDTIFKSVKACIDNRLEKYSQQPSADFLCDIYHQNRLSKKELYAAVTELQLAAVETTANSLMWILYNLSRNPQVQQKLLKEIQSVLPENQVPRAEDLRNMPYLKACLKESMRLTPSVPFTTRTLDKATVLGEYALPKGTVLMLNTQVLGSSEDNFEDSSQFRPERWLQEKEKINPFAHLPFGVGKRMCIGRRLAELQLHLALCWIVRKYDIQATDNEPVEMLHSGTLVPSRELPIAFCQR
Description: (§1) OVCAR-3 cells (1.5×10^6 cell/flask) were plated on T25 culture flasks. One day after plating, cells were treated with 500 nM 25(OH)D3 in RPMI 1640 medium supplemented with 10% FBS, 10 μg/ml insulin, 0.25% glucose and antibiotics (100 IU/ml penicillin, 100 μg/ml streptomycin). After 0, 3 or 24 hr, the medium was collected and the cell monolayer was extracted with 1 ml methanol. After 15 min incubation at room temperature, the methanol was transformed into the same tube than the sample medium. The samples for the measurement of the 25(OH)D3 metabolites were purified using the acetonitrile-C 18 Sep-Pak (Waters Corporation, Milford, Mass.) procedure (Turnbull, H., Trafford, D. J., Makin, H. L., “A Rapid and Simple Method for the Measurement of Plasma 25-hydroxyvitamin D2 and 25-hydroxyvitamin D3 Using Sep-Pak C 18 Cartridges and a Single High-Performance Liquid Chromatographic Step,” Clin. Chim. Acta., 120:65-76 (1982)) followed by separation of the metabolites by a high-performance liquid chromatography. […] The second measurement was done following the same procedure except dextran charcoal-treated FBS was used instead of FBS, 24OHase inhibitor (200 nM VID400) was used with the 500 nM 25(OH)D3 treatment, and the samples were collected only after 0 and 24 hr.

1αOHase in OVCAR-3 cells = target: T2, 1αOHase in OVCAR-3 cells (Homo sapiens, UniProt O15528); experiment: Metabolic analysis of 25(OH)D3: 1,25(OH)2D3 production; type: cell-based
T2 construct: showing the expression of 1αOHase in OVCAR-3 cells; endogenous in cells; host or cells: OVCAR-3
T2 sequence (O15528 1-508): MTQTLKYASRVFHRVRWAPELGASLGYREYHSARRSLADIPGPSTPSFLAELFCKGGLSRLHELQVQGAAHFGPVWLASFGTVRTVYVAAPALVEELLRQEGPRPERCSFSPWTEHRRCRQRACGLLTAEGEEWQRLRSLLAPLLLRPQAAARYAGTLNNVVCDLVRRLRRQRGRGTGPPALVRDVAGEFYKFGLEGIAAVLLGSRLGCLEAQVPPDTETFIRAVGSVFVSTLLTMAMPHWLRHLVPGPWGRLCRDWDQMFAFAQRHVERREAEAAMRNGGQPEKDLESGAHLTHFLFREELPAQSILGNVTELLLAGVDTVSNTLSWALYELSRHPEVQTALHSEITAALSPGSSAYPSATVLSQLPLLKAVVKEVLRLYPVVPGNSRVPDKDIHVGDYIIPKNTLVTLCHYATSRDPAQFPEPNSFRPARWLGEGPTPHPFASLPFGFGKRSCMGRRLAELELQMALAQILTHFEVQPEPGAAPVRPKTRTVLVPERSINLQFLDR
Description: as §1

[1] = 500 nM 25(OH)D3, 0 hr, experiment I (FBS)
[2] = 500 nM 25(OH)D3, 3 hr, experiment I (FBS)
[3] = 500 nM 25(OH)D3, 24 hr, experiment I (FBS)
[4] = 500 nM 25(OH)D3, 24 hr, experiment II (dextran charcoal-treated FBS)
[5] = 200 nM VID400 + 500 nM 25(OH)D3, 24 hr, second experiment
[6] = 500 nM 25(OH)D3 + 200 nM VID400, 24 hr, experiment II (dextran charcoal-treated FBS)

production of 24,25(OH)2D3 compared to 500 nM 25(OH)D3 treatment alone (24OHase in OVCAR-3 cells; [5])	24,25(OH)2D3 (24OHase in OVCAR-3 cells; [6])	1,25(OH)2D3 (1αOHase in OVCAR-3 cells; [6])	Compound	24,25(OH)2D3 (24OHase in OVCAR-3 cells; [1])	24,25(OH)2D3 (24OHase in OVCAR-3 cells; 500 nM 25(OH)D3, 0 hr, experiment II (dextran charcoal-treated FBS))	24,25(OH)2D3 (24OHase in OVCAR-3 cells; [2])	amount of 24,25(OH)2D3 relative to 0 hr (24OHase in OVCAR-3 cells; 500 nM 25(OH)D3, 3 hr)	24,25(OH)2D3 (24OHase in OVCAR-3 cells; [3])	24,25(OH)2D3 (24OHase in OVCAR-3 cells; [4])	amount of 24,25(OH)2D3 relative to 0 hr (24OHase in OVCAR-3 cells; 500 nM 25(OH)D3, 24 hr)	concentration of 24,25(OH)2D3 relative to 0 hr (24OHase in OVCAR-3 cells; 500 nM 25(OH)D3, 24 hr, second experiment)	1,25(OH)2D3 (1αOHase in OVCAR-3 cells; [1])	1,25(OH)2D3 (1αOHase in OVCAR-3 cells; [2])	1,25(OH)2D3 (1αOHase in OVCAR-3 cells; [3])	1,25(OH)2D3 (1αOHase in OVCAR-3 cells; [4])	effect on production of 1,25(OH)2D3 (1αOHase in OVCAR-3 cells; [5])
			C=C1CC[C@H](O)C/C1=C/C=C1\CCC[C@]2(C)[C@@H]([C@H](C)CCCC(C)(C)O)CC[C@@H]12 [25(OH)D3, monohydroxyvitamin D3]	6 nM	1 nM	24 nM	4 times	112 nM	27 nM	18 fold	27 times	23 pM	37 pM	33 pM	28 pM	
reduced to one-third	8 nM	27 pM	O=C(NC[C@@H](c1ccccc1)n1ccnc1)c1ccc(-c2ccc(Cl)cc2)cc1 [VID400, 2-(R)-4′-Chlorobiphenyl-4-carboxylic acid (2-imidazol-1-yl-2-phenyl-ethyl)-amide]													did not have an effect on production of 1,25(OH)2D3
